Tests used:
[1] = system: NK-92 (IL-2 2.5 ng/mL); assay: drug sensitivity score (DSS) (DSS units); higher = more sensitive; extreme values may be limits of the assay; settings: 72 h
[2] = system: normal primary NK cells, pool 1 (3 donors), resting (IL-2 0 ng/mL); assay: as above; settings: 72 h
[3] = system: KAI3 (IL-2 2.5 ng/mL); assay: as above; settings: 72 h
[4] = system: normal primary NK cells, pool 2 (3 donors) (IL-2 2.5 ng/mL); assay: as above; settings: 72 h
[5] = system: NKL (IL-2 2.5 ng/mL); assay: as above; settings: 72 h
[6] = system: normal primary NK cells, pool 1 (3 donors) (IL-2 2.5 ng/mL); assay: as above; settings: 72 h
[7] = system: DERL-7 (IL-2 2.5 ng/mL); assay: as above; settings: 72 h
[8] = system: KHYG-1 (IL-2 2.5 ng/mL); assay: as above; settings: 72 h
[9] = system: YT (IL-2 2.5 ng/mL); assay: as above; settings: 72 h
[10] = system: normal primary NK cells, pool 3 (3 donors) (IL-2 2.5 ng/mL); assay: as above; settings: 72 h
[11] = system: NK-YS (IL-2 2.5 ng/mL); assay: as above; settings: 72 h
[12] = system: SNK-6 (IL-2 2.5 ng/mL); assay: as above; settings: 72 h
[13] = system: IMC-1 (IL-2 20 ng/mL); assay: as above; settings: 72 h
[14] = system: normal NK cells expanded with K562-aAPC; assay: percent inhibition of viability; higher = more inhibition; settings: 72 h, IL-2 2.5 ng/mL
Description: (§1)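 Drug sensitivity and resistance testing on K562-aAPC-expanded normal NK cells: 5 concentrations (10-fold steps over a 10,000-fold range), 72 h at 37 °C, viability by CellTiter-Glo normalised to DMSO and benzethonium chloride controls; DSS from the fitted curve.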

[15] = system: normal NK cells expanded with K562-aAPC; assay: drug sensitivity score (DSS) (DSS units); higher = more sensitive; extreme values may be limits of the assay; settings: 72 h; IL-2 2.5 ng/mL
Description: as §1

[16] = system: NK-92 (IL-2 2.5 ng/mL); assay: percent inhibition of viability; higher = more inhibition; settings: 72 h
[17] = system: normal primary NK cells, pool 1 (3 donors), resting (IL-2 0 ng/mL); assay: as above; settings: 72 h
[18] = system: KAI3 (IL-2 2.5 ng/mL); assay: as above; settings: 72 h
[19] = system: normal primary NK cells, pool 2 (3 donors) (IL-2 2.5 ng/mL); assay: as above; settings: 72 h
[20] = system: NKL (IL-2 2.5 ng/mL); assay: as above; settings: 72 h
[21] = system: normal primary NK cells, pool 1 (3 donors) (IL-2 2.5 ng/mL); assay: as above; settings: 72 h
[22] = system: DERL-7 (IL-2 2.5 ng/mL); assay: as above; settings: 72 h
[23] = system: KHYG-1 (IL-2 2.5 ng/mL); assay: as above; settings: 72 h
[24] = system: YT (IL-2 2.5 ng/mL); assay: as above; settings: 72 h
[25] = system: normal primary NK cells, pool 3 (3 donors) (IL-2 2.5 ng/mL); assay: as above; settings: 72 h
[26] = system: NK-YS (IL-2 2.5 ng/mL); assay: as above; settings: 72 h
[27] = system: SNK-6 (IL-2 2.5 ng/mL); assay: as above; settings: 72 h
[28] = system: IMC-1 (IL-2 20 ng/mL); assay: as above; settings: 72 h

Cn1c(=O)n(-c2ccc(C(C)(C)C#N)cc2)c2c3cc(-c4cnc5ccccc5c4)ccc3ncc21 [Dactolisib] (max concentration tested 1000 nM)
Settings	drug sensitivity score
[1]	15.2
[2]	11.8
[3]	15.9
[4]	9.12
[5]	18.6
[6]	10.6
[7]	19.6
[8]	14.2
[9]	12.7
[10]	4.8
[11]	14.8
[12]	8.78
[13]	4.51
[15]	8.96

percent inhibition of viability [%]
Settings	0.1 nM	1 nM	10 nM	100 nM	1000 nM
[14]	-4.3	-1.75	17.1	38.2	57.6
[16]	-5.17	-0.09	27.1	63.9	70.8
[17]	-1.73	24	24.7	38.7	40.6
[18]	-4.23	-6.61	24.4	68.8	75.8
[19]	-5.46	9.09	17.1	37.6	57.4
[20]	-13.1	-9.35	36.5	69.7	76.1
[21]	-5.56	16	21.4	45	38.5
[22]	0.52	16	38.7	79.4	84.9
[23]	-4.3	-5.69	3.3	74.9	90.8
[24]	-3.01	-5.11	15.7	57.6	80.4
[25]	-3.41	6.19	15.4	16.5	43.5
[26]	0.2	-0.12	24.7	63.3	82.3
[27]	-7.98	-26.8	2.13	46.8	52.4
[28]	-8.09	0.4	-15.1	8.63	56.9

COc1cc(OC)c(/C=C/S(=O)(=O)Cc2ccc(OC)c(NCC(=O)O)c2)c(OC)c1 [Rigosertib] (max concentration tested 10000 nM)
Settings	drug sensitivity score
[1]	26.8
[2]	8.37
[3]	20.3
[4]	3.7
[5]	26.7
[6]	4.54
[7]	29.1
[8]	29.8
[9]	27.8
[10]	0.62
[11]	23
[12]	26.8
[13]	29.3
[15]	11.3

percent inhibition of viability [%]
Settings	1 nM	10 nM	100 nM	1000 nM	10000 nM
[14]	-1.17	-9.48	-1.76	57.7	82.7
[16]	-6.11	2.36	77.7	97.1	94.3
[17]	-8.83	-4.84	6.87	37.8	69.8
[18]	-3.07	5.22	55	71.9	67.5
[19]	-8.68	-8.95	-9.12	13.6	37.4
[20]	-16.2	-17.7	87.4	92.2	85.4
[21]	-11.3	-13.9	-2.02	15.3	45.3
[22]	-3.53	3.03	91	98	97.8
[23]	-1.12	-2.53	96.6	102	97.6
[24]	-2.58	3.15	82.9	98.4	95.7
[25]	-13.6	-15.7	-12.6	-0.93	21.3
[26]	-0.07	0.08	70.9	76.8	77.4
[27]	-14.2	3	76.5	95.2	97.2
[28]	-6.34	-1.76	93.8	99.2	97.8
